Assay results taken from article PMC3917258, “6-Bromoisatin Found in Muricid Mollusc Extracts Inhibits Colon Cancer Cell Proliferation and Induces Apoptosis, Preventing Early Stage Tumor Formation in a Colorectal Cancer Rodent Model” (Marine Drugs, 2013).

How the values were obtained:
[1] = Plasma liver enzymes AST, ALT, ALP (hepatotoxicity); type: in vivo, mice (C57BL/6J); details: 0.025-0.1 mg/g daily gavage two weeks, versus oil control
Method: (§1) To detect the early stage prevention of colon cancer, an established AARGC rodent model with injection of the carcinogen AOM was used. Synthetic 6-bromoisatin at 3 different dosages (0.025, 0.05 and 0.1 mg/g body weight) was administered to mice by daily oral gavage in 100 µL sunflower oil, containing 0.02% Vitamin E, for two weeks. The control group was gavaged with sunflower oil (containing 0.02% Vitamin E) only. After two weeks, all mice were injected with a single intraperitoneal (i.p.) injection of AOM at a dosage of 10 mg/kg bodyweight and euthanized 6 h later by cervical dislocation under anesthesia. […] The distal colon of each mouse was excised and fixed in 10% buffered formalin for 24 h and then embedded in paraffin for histological and immunohistological examination.
(§2) Blood samples (0.5–1 mL) were obtained from the mice under anesthesia by cardiac puncture at time of kill and transferred to Gribbles Veterinary Pathology laboratory, Adelaide within heparinized vacutainer tubes then centrifuged to separate into the cell layer for hematology analysis (Abbott Cell Dyn 3700 analyzer, North Ryde, NSW, Australia) and plasma for biochemistry analysis (Siemens Advia 1800 chemistry analyzer, Erlangen, Germany). The plasma levels of the liver enzymes AST, ALT and ALP were assessed as indicators of hepatotoxicity.

[2] = system: HT29 cells; assay: LDH release (CytoTox-ONE membrane integrity, necrosis); type: cell-based, human; details: any concentration, in comparison with DMSO control, 12 h
Method: All media and chemicals were purchased from Sigma Aldrich (Castle Hill, NSW, Australia) unless otherwise stated. HT29 human colorectal cancer cell line (passage no. 36-42) were cultured (37 °C and 5% CO2) in Dulbecco’s Modified Eagle’s Medium (DMEM) supplemented with 4500 mg/L L-glutamine, 10% FBS, 100 U/mL Penicillin/Streptomycin and 1% Non-essential Amino Acid (100×), until the cells reached 70% confluence. The cells were harvested from flasks by trypsinization (1× Trypsin-EDTA) and were seeded (20,000 cells/well) into clear 96-well plates (Costar®, Mt Martha, VIC, Australia) for measurement of cell viability and white (opaque) 96-well plates (Interpath, Heidelberg West, VIC, Australia) for determination of apoptosis and necrosis. HT29 cells were incubated for 48 h, then the media was removed and the cells were washed with PBS. To treat the cells, synthetic 6-bromoisatin was dissolved in 100% dimethylsulphoxide (DMSO) then diluted in media and added to the cells at a range of concentrations from 0.1 to 0.01 mg/mL, in triplicate (final DMSO concentration of 1%). 1% DMSO controls were also included on each plate. Staurosporine (5 µM) for apoptosis and lysis solution (5 μL/well, Promega, Alexandria, NSW, Australia) for necrosis were added to the white plates in triplicate, as positive controls. All cells were treated for 12 h. […]

[3] = system: distal colonic epithelial cells; assay: AARGC mouse model: Ki-67 proliferation index; type: in vivo, mice (C57BL/6J); details: distal colon, compared to oil control
Method: This experiment was conducted under Flinders animal welfare approval number 751-10. A total of 38 wild-type (C57BL/6J) male mice aged 10 weeks were obtained from the Animal Resource Centre, Perth, Western Australia. Mice were divided randomly into 4 groups (ten mice in each treatment group and 8 mice in the sunflower oil only control group) and housed in 8 cages (four to five mice per cage). The mice were given water and food (rodent chow) ad libitum and maintained at the temperature of 22 ± 2 °C and humidity of 80% ± 10% with a 12 h light/dark cycle. Mice were weighed every five days and on the day of kill, and monitored daily for signs of illness, such as weight and hair loss, diarrhea, constipation, rectal bleeding, labored breathing, lethargy, eye and nose discharge.
as §1
Ki-67 is a cell cycle associated antigen and regarded as a useful proliferation marker. Proliferative activity of distal colonic epithelial cells was measured using an antibody specific for the nuclear proliferating antigen ki-67 (rat-anti-mouse clone TEC-3, Dako, Campbellfield, VIC, Australia) in combination with an immunohistochemistry detection method in paraffin embedded sections, as previously described. […]

[4] = Blood hematology; type: in vivo, mice (C57BL/6J)
Method: as §1, §2

[5] = 0.025 mg/g, n = 6, 6 h after AOM 10 mg/kg
[6] = 0.05 mg/g, n = 6, 6 h after AOM 10 mg/kg
[7] = 0.1 mg/g, n = 8, 6 h after AOM 10 mg/kg

Which results are given for `O=C1Nc2cc(Br)ccc2C1=O` [6-bromoisatin, 6-Bromoindole-2,3-dione]?
plasma level of AST, ALT and ALP [1]: No significant difference; level of lactate dehydrogenase (LDH) [2]: No increase; cell proliferation ([3]; 0.025 mg/g daily oral gavage two weeks): did not show a significant anti-proliferative effect; cell proliferation ([3]; 0.05 mg/g daily oral gavage two weeks): significantly reduced; reduction in cell proliferation ([3]; 0.1 mg/g daily oral gavage two weeks): more than 50%; Hct (Hematocrit) [4, 5]: 0.4 ± 0.01 L/L; Hemoglobin [4, 5]: 139.7 ± 5.1 g/L; Lymphocytes [4, 5]: 3.3 ± 1.1 ×10^9/L; MCH (Mean Corpuscular Hemoglobin) [4, 5]: 15.0 ± 0.0 pg; MCHC (Mean Corpuscular Hemoglobin Concentration) [4, 5]: 322.7 ± 1.5 g/L; MCV (Mean Corpuscular Volume) [4, 5]: 46.5 ± 0.8 fL; Monocytes [4, 5]: 0.2 ± 0.3 ×10^9/L; Neutrophils [4, 5]: 1.6 ± 0.8 ×10^9/L; Red cell count [4, 5]: 9.3 ± 0.4 ×10^12/L; White cell count [4, 5]: 5.2 ± 1.8 ×10^9/L; Hct (Hematocrit) [4, 6]: 0.4 ± 0.01 L/L; Hemoglobin [4, 6]: 135.0 ± 3.5 g/L; Lymphocytes [4, 6]: 3.4 ± 0.8 ×10^9/L; MCH (Mean Corpuscular Hemoglobin) [4, 6]: 15.0 ± 0.0 pg; MCHC (Mean Corpuscular Hemoglobin Concentration) [4, 6]: 319.0 ± 2.8 g/L; MCV (Mean Corpuscular Volume) [4, 6]: 46.7 ± 1.2 fL; Monocytes [4, 6]: 0.2 ± 0.1 ×10^9/L; Neutrophils [4, 6]: 2.2 ± 1.3 ×10^9/L; Red cell count [4, 6]: 9.1 ± 0.4 ×10^12/L; White cell count [4, 6]: 5.8 ± 1.5 ×10^9/L; Hct (Hematocrit) [4, 7]: 0.4 ± 0.02 L/L; Hemoglobin [4, 7]: 138.4 ± 5.7 g/L; Lymphocytes [4, 7]: 2.3 ± 0.9 ×10^9/L; MCH (Mean Corpuscular Hemoglobin) [4, 7]: 15.0 ± 0.0 pg; MCHC (Mean Corpuscular Hemoglobin Concentration) [4, 7]: 319.8 ± 3.0 g/L; MCV (Mean Corpuscular Volume) [4, 7]: 46.4 ± 0.7 fL; Monocytes [4, 7]: 0.1 ± 0.1 ×10^9/L; Neutrophils [4, 7]: 0.8 ± 0.7 ×10^9/L; Red cell count [4, 7]: 9.4 ± 0.5 ×10^12/L; White cell count [4, 7]: 3.2 ± 1.1 ×10^9/L
